Data set [1] concerns PC-3. Kind of data set: Antiproliferative activity against human PC-3 cells assessed as reduction in cell growth. In kind it is functional, cell-based.
In data set [2] the test system is PC-3. Put plainly: Cytotoxicity against human PC-3 cells assessed as reduction in cell growth. In kind it is toxicity, cell-based.
Data set [3] addresses T1, Vascular endothelial growth factor receptor 2 (Homo sapiens, UniProt P35968). Put plainly: Inhibition of VEGFR2 (unknown origin) using Poly-(Glu,Tyr 4:1) peptide as substrate incubated for 1 hr by ELISA method.
In data set [4] the test system is HepG2. Kind of data set: Cytotoxicity against human HepG2 cells assessed as reduction in cell growth incubated for 48 hrs by MTT assay. In kind it is functional, cell-based. The settings on record: HepG2, 48 h.
Data set [5] has as its system HCT-116. Kind of data set: Cytotoxicity against human HCT-116 cells assessed as reduction in cell growth incubated for 48 hrs by MTT assay. In kind it is functional, cell-based. The settings on record: HCT-116, 48 h.
The test system of data set [6] is MCF7. Put plainly: Cytotoxicity against human MCF7 cells assessed as reduction in cell viability incubated for 48 hrs by MTT assay. The settings on record: MCF7, 48 h. Format: functional, cell-based.
The nature of data set [7]: Half life in human at 140 mg.
Data set [8] in a line: Tmax in human at 140 mg. In kind it is ADME.
A short description of data set [9]: Cmax in human at 140 mg. Format: ADME.
Data set [10] has as its target T1, Vascular endothelial growth factor receptor 2. Put plainly: Inhibition of VEGFR2 (unknown origin).
Data set [11] addresses Epidermal growth factor receptor (Homo sapiens, UniProt P00533). Kind of data set: Inhibition of EGFR (unknown origin).
For data set [12], the system named is HepG2. Put plainly: Antiproliferative activity against human HepG2 cells. Format: functional, cell-based.
The subject of data set [13] is MCF7. Kind of data set: Antiproliferative activity against human MCF7 cells. In kind it is functional, cell-based.
The test system of data set [14] is HCT-116. Put plainly: Antiproliferative activity against human HCT-116 cells. Format: functional, cell-based.
Another data set deals with MDA-MB-231. Put plainly: Antiproliferative activity against human MDA-MB-231 cells. In kind it is functional, cell-based.
The test system of a further data set is Caco-2. Kind of data set: Antiproliferative activity against human Caco-2 cells. Format: functional, cell-based.
Data set [15] relates to MCF7. Put plainly: Cytotoxicity against human MCF7 cells assessed as reduction in cell growth incubated for 48 hrs by MTT assay. Format: functional, cell-based. Particulars: MCF7, 48 h.
Another data set deals with PC-9. Kind of data set: Growth inhibition of human PC-9 cells. In kind it is functional.
The next data set concerns HCC827. Kind of data set: Growth inhibition of human HCC827 cells. Format: functional.
Data set [16] deals with HepG2. Kind of data set: Cytotoxicity against human HepG2 cells assessed as reduction in cell viability. In kind it is functional, cell-based.
Data set [17] has as its system HCT-116. Kind of data set: Cytotoxicity against human HCT-116 cells assessed as reduction in cell viability. In kind it is functional, cell-based.
Data set [18] in a line: Cytotoxicity against African green monkey Vero cells assessed as reduction in cell viability incubated for 72 hrs by crystal violet staining based analysis. Format: toxicity, Chlorocebus sabaeus.
The subject of data set [19] is HepG2. Put plainly: Cytotoxicity against human HepG2 cells assessed as reduction in cell viability incubated for 72 hrs by MTT assay. In kind it is functional, cell-based. Particulars: HepG2, 72 h.
For data set [20], the system named is HCT-116. Kind of data set: Cytotoxicity against human HCT-116 cells assessed as reduction in cell viability incubated for 72 hrs by MTT assay. Format: functional, cell-based. The settings on record: HCT-116, 72 h.
Data set [21] has as its system MCF7. Put plainly: Cytotoxicity against human MCF7 cells assessed as reduction in cell viability incubated for 72 hrs by MTT assay. In kind it is functional, cell-based. Particulars: MCF7, 72 h.
In data set [22] the target is T1, Vascular endothelial growth factor receptor 2. Kind of data set: Inhibition of human VEGFR2 by discoverX kinome scan assay.
For data set [23], the system named is HepG2. Kind of data set: Antiproliferative activity against human HepG2 cells assessed as reduction in cell growth by MTT assay. In kind it is functional, cell-based.
Data set [24] has as its system HCT-116. Kind of data set: Antiproliferative activity against human HCT-116 cells assessed as reduction in cell growth by MTT assay. Format: functional, cell-based.
For data set [25], the system named is MCF7. Put plainly: Antiproliferative activity against human MCF7 cells assessed as reduction in cell growth by MTT assay. Format: functional, cell-based.
Data set [26] relates to HCT-116. Kind of data set: Cytotoxicity against human HCT-116 cells assessed as reduction in cell viability by SRB assay. In kind it is functional, cell-based.
In data set [27] the test system is HepG2. Put plainly: Cytotoxicity against human HepG2 cells assessed as reduction in cell viability by SRB assay. In kind it is functional, cell-based.
Data set [28] relates to MCF7. Kind of data set: Cytotoxicity against human MCF7 cells assessed as reduction in cell viability by SRB assay. Format: functional, cell-based.
Data set [29] addresses Serine/threonine-protein kinase B-raf (Homo sapiens, UniProt P15056). Kind of data set: Inhibition of wild type BRAF (unknown origin).
Data set [30] deals with Serine/threonine-protein kinase B-raf (Homo sapiens, UniProt P15056, V600E). Put plainly: Inhibition of BRAF V600E mutant (unknown origin).
Sequence of Serine/threonine-protein kinase B-raf (Homo sapiens, UniProt P15056, V600E) (P15056 2-766 V600E limits assumed): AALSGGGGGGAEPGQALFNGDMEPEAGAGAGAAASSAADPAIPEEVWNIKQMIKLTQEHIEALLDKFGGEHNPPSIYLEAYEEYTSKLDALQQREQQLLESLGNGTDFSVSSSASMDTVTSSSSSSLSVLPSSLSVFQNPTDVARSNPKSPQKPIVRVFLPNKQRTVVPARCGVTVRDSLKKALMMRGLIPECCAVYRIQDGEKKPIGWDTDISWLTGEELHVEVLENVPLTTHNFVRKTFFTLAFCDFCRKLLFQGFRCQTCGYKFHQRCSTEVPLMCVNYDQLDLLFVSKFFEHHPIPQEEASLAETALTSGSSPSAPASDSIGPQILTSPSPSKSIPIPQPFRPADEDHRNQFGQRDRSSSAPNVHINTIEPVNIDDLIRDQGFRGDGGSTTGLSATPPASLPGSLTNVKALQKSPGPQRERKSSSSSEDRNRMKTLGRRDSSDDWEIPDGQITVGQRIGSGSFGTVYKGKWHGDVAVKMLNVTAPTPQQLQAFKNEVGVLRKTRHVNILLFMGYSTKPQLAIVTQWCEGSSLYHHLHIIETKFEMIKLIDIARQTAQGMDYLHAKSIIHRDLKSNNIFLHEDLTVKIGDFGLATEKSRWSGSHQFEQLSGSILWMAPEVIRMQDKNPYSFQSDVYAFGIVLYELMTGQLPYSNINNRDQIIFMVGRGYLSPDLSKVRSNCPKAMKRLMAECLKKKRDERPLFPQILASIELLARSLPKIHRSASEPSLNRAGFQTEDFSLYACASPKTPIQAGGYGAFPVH
In data set [31] the target is RAF proto-oncogene serine/threonine-protein kinase (Homo sapiens, UniProt P04049). Put plainly: Inhibition of C-RAF (unknown origin).
Sequence of RAF proto-oncogene serine/threonine-protein kinase (P04049 whole entry): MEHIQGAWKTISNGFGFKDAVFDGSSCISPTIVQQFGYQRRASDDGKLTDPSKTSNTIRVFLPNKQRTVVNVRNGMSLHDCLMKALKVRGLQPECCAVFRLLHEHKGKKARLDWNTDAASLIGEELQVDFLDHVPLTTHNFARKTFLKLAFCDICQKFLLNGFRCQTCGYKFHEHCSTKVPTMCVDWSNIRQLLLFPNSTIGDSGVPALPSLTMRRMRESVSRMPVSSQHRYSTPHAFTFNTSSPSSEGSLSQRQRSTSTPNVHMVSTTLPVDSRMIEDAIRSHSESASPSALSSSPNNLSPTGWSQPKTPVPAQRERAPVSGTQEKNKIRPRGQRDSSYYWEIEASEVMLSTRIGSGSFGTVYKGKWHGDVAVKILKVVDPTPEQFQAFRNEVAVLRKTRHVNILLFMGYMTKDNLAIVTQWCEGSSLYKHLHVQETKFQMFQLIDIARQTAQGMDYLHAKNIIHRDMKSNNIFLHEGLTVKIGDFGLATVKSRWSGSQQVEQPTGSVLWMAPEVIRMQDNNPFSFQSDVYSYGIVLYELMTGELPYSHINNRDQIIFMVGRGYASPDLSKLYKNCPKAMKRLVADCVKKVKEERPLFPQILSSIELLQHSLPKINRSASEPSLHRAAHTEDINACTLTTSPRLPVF
The next data set concerns A549. Kind of data set: Antiproliferative activity against human A549 cells. Format: functional, cell-based.
Data set [32] has as its system PC-3. Put plainly: Antiproliferative activity against human PC-3 cells. Format: functional, cell-based.
Data set [33] relates to HepG2. Put plainly: Antiproliferative activity against human HepG2 cells assessed as reduction in cell growth after 72 hrs by MTT assay. The settings on record: HepG2, 72 h. Format: functional, cell-based.
Data set [34] relates to HCT-116. Kind of data set: Antiproliferative activity against human HCT-116 cells assessed as reduction in cell viability measured after 72 hrs by MTT assay. The settings on record: HCT-116, 72 h. In kind it is functional, cell-based.
For a further data set, the system named is A-375. Kind of data set: Antiproliferative activity against human A-375 cells assessed as reduction in cell viability measured after 72 hrs by MTT assay. Format: functional, cell-based. Particulars: A-375, 72 h.
Data set [35] deals with MCF7. Put plainly: Antiproliferative activity against human MCF7 cells assessed as reduction in cell viability measured after 72 hrs by MTT assay. Format: functional, cell-based. Particulars: MCF7, 72 h.
A further data set relates to MIA PaCa-2. Kind of data set: Antiproliferative activity against human MIA PaCa-2 cells assessed as inhibition of cell growth incubated for 48 hrs by MTS assay. Particulars: MIA PaCa-2, 48 h. Format: functional, cell-based.
Data set [36] can be described thus: Inhibition of VEGFR (unknown origin). More on the design: species or system Homo sapiens.

The text below walks through data of ChEMBL document CHEMBL5500383, “Recent advances and future directions on small molecule VEGFR inhibitors in oncological conditions” (Eur J Med Chem, 2024).

T1 sequence (P35968 whole entry): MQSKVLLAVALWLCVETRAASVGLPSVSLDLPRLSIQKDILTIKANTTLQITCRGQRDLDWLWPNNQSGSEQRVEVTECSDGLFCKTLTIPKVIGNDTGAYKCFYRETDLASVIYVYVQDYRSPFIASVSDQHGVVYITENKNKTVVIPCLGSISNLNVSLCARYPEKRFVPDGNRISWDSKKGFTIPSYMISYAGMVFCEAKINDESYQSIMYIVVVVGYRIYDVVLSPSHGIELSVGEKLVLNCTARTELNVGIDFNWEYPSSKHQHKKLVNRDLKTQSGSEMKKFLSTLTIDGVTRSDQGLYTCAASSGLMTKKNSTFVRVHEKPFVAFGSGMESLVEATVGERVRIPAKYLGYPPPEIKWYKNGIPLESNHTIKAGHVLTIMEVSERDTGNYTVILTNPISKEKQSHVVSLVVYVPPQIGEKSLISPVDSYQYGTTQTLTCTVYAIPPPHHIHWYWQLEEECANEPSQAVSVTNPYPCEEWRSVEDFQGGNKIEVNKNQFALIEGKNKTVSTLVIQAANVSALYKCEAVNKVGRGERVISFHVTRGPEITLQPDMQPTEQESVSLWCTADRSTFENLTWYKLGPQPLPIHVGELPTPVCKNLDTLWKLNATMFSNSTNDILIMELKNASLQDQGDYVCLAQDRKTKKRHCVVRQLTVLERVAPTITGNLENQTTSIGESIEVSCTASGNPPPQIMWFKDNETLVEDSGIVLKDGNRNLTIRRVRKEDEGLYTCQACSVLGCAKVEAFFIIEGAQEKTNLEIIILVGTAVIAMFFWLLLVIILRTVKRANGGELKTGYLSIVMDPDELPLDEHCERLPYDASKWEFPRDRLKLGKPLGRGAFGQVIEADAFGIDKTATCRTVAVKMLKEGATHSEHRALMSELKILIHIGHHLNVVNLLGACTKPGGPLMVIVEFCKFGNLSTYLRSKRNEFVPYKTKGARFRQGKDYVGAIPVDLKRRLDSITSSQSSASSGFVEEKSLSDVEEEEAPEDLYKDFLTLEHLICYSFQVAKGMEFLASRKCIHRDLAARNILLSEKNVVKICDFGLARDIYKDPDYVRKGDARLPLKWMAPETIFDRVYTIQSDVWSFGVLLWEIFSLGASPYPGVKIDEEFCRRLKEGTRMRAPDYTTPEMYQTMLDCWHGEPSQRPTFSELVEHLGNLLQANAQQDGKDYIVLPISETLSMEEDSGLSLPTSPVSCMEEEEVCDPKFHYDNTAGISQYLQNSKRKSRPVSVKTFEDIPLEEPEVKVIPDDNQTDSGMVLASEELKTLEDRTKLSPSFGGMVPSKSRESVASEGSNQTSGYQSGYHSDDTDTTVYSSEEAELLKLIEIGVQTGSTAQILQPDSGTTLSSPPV
Sequence of Serine/threonine-protein kinase B-raf (Homo sapiens, UniProt P15056) (P15056 whole entry): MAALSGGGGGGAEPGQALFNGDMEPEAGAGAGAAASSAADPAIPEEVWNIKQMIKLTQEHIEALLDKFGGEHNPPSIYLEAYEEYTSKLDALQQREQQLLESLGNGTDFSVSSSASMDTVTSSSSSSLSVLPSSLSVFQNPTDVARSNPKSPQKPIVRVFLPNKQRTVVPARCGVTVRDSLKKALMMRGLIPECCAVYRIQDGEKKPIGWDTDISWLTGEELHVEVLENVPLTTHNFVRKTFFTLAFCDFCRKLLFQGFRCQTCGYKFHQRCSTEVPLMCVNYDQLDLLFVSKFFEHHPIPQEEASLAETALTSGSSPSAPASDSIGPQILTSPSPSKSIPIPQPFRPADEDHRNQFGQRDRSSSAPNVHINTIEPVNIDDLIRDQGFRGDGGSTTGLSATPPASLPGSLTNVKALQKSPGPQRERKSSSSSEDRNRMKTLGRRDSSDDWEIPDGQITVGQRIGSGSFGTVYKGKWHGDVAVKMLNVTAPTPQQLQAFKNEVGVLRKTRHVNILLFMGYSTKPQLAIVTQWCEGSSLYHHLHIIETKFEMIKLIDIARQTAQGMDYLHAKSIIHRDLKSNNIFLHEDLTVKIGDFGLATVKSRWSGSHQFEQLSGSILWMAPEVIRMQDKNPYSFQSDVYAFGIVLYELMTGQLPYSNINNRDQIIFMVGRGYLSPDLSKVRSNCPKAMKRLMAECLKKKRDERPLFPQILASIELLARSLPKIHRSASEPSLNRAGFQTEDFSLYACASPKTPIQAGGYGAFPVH
Sequence of Epidermal growth factor receptor (P00533 whole entry): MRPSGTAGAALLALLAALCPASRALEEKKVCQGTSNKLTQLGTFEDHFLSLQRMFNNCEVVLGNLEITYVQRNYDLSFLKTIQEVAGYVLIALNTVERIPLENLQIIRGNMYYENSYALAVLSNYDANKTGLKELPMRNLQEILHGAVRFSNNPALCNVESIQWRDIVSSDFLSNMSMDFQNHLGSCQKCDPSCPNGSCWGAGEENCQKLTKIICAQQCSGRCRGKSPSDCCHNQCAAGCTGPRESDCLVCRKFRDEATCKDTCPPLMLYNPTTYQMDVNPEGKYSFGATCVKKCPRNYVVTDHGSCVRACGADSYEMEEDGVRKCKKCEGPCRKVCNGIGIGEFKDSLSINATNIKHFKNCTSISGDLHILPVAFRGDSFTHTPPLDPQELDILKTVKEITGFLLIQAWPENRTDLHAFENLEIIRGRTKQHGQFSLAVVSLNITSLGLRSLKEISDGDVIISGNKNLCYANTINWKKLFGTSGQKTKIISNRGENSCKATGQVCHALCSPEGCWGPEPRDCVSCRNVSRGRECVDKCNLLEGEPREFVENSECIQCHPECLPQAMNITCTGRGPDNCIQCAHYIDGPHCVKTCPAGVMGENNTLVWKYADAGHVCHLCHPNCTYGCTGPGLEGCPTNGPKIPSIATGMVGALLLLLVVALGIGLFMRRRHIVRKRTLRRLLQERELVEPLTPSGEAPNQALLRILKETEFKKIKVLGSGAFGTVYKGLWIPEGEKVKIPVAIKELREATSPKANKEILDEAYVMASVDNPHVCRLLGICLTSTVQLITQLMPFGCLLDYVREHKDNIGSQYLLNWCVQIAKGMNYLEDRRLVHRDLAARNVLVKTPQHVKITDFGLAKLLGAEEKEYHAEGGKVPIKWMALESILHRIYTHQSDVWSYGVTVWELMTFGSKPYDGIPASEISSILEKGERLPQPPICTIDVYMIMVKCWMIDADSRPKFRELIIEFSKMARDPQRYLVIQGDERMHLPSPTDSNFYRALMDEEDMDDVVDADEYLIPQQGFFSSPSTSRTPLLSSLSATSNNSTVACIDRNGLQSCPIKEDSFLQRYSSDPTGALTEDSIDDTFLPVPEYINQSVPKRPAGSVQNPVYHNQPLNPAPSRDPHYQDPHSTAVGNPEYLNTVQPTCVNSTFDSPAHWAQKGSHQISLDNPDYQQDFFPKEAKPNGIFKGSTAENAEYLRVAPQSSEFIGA

For `N#CCc1nnc(NC(=O)c2ccco2)s1`, the IC50 in the data set on PC-3 [1] turned out to be 9.1 nM; with PC-3 [2] it was 68.7 nM.

On to `Cc1cc(C)nc(NS(=O)(=O)c2ccc(/N=N/c3ccc(C4=NCC(=O)N(C)c5ccc(Cl)cc54)cc3)cc2)n1`, for which the IC50 in data set [3] worked out at 0.1 nM; with HepG2 [4] it was 8980 nM; with HCT-116 [5] it was 7770 nM; in the data set on MCF7 [6] it was 6990 nM.

Compound `COc1cc2nccc(Oc3ccc(NC(=O)C4(C(=O)Nc5ccc(F)cc5)CC4)cc3)c2cc1OC` [CABOZANTINIB] had a half-life in data set [7] of 112 h. For the same compound, in data set [8], the Tmax is 4 h. The compound also displayed a Cmax in [9] of 554 ng/mL.

Take `COc1ccc(-c2cc(-c3ccc(C)cc3)nc(NN)n2)cc1`: the half-inhibitory concentration (IC50) worked out at 98 nM in data set [10]; 71 nM in data set [11]; 18300 nM in the data set on HepG2 [12]; 7800 nM in the data set on MCF7 [13]; 31000 nM with HCT-116 [14]; 23700 nM in the data set on MDA-MB-231. In the data set with Caco-2, this compound returned an IC50 of 12800 nM.

Take `CC1=NN(c2ccc([N+](=O)[O-])cc2[N+](=O)[O-])C(=O)/C1=C\c1cn(-c2ccccc2)nc1-c1cccc([N+](=O)[O-])c1`: the IC50 with MCF7 [15] was 16500 nM.

Consider `NC(=O)CCn1cc(-c2ccc3ncnc(Nc4cc(O)c(F)cc4F)c3c2)nn1`, for which the concentration for 50% growth inhibition (GI50) in the data set with PC-9 came to 6000 nM; in the data set with HCC827 it was 1300 nM.

For the compound `Cc1nc2ccccc2n(CC(=O)Nc2ccc(C(=O)NCc3ccccc3)cc2)c1=O`, the IC50 turned out to be 5300 nM with HepG2 [16] and 2200 nM in the data set on HCT-116 [17]. Also, the IC50 at 72 h in [18] is 11800 nM.

As for `CCOC(=O)c1ccc(NC(=O)c2ccc(NC(=O)CN3C(=O)S/C(=C\c4ccccc4)C3=O)cc2)cc1`, the IC50 with HepG2 [19] is 11200 nM; in the data set on HCT-116 [20] it was 8990 nM; in the data set on MCF7 [21], 7100 nM.

On to `O=C(N/N=C/c1ccc(Cl)cc1)c1ccc(Nc2ncnc3sc4c(c23)CCCC4)cc1`, for which the IC50 in [22] is 230 nM; in the data set with HepG2 [23], 4100 nM; with HCT-116 [24], 2800 nM; in the data set on MCF7 [25], 10300 nM; with HCT-116 [26] it was 2800 nM; with HepG2 [27], 4100 nM. Also, in the data set on MCF7 [28], the IC50 worked out at 10300 nM.

For `O=C(CSc1nc2ccccc2c(=O)n1-c1ccc(Cl)cc1)Nc1ccc(-c2nc3ccccc3[nH]2)cc1`, the IC50 in [29] is 20 nM; in data set [30] it was 2 nM; in data set [31], 100 nM; in the data set on A549, 100 nM; in the data set with PC-3 [32] it was 100 nM; in the data set with HepG2 [33], 100 nM. For the same compound, the IC50 in the data set on HCT-116 [34] is 100 nM; with A-375 it was 100 nM; with MCF7 [35], 100 nM; in the data set with MIA PaCa-2 it was 100 nM; in data set [36], above 100000 nM.
